Columns and labels:
[1] = system: vancomycin-resistant Enterococci; conditions: cited from earlier work
[2] = system: Burkholderia cepacia varieties; conditions: cited from earlier work
[3] = system: methicillin-resistant Staphylococcus aureus; conditions: cited from earlier work
HIV virus = conditions: cited from earlier work
[4] = system: B1-F10 murine melanoma cells; conditions: cited from earlier work
[5] = system: mammalian herpes simplex virus; conditions: cited from earlier work
Staphylococcus aureus = conditions: cited from earlier work
Pyricularia oryzae = conditions: cited from earlier work
Alternaria alternata = conditions: cited from earlier work
[6] = assay type: biochemical; conditions: 30° C., 2 h, substrate Macrolactin A

CC1CCCC=CC=CC(O)CC(O)CC=CC=CC(OC(=O)CC(=O)O)CC=CC=CC(=O)O1 (centres unmarked) [7-O-malonyl Macrolactin A]
inhibition of vancomycin-resistant Enterococci [1]: can sufficiently inhibit
inhibition of Burkholderia cepacia varieties [2]: can sufficiently inhibit
inhibition of methicillin-resistant Staphylococcus aureus [3]: can sufficiently inhibit

C[C@@H]1CCC/C=C/C=C/[C@H](O)C[C@@H](O)C/C=C\C=C\[C@@H](O)C/C=C/C=C\C(=O)O1 [Macrolactin A]
protection of lymphocytes through inhibiting HIV virus (HIV virus): can protect lymphocytes
inhibition of B1-F10 murine melanoma cells [4]: can inhibit
inhibition of mammalian herpes simplex virus [5]: can inhibit

Macrolactin B
inhibition of Staphylococcus aureus (Staphylococcus aureus): inhibit
effect on plant pathogenic fungus Pyricularia oryzae (Pyricularia oryzae): obvious effects
effect on plant pathogenic fungus Alternaria alternata (Alternaria alternata): obvious effects

Macrolactin T
inhibition of Staphylococcus aureus (Staphylococcus aureus): inhibit
effect on plant pathogenic fungus Pyricularia oryzae (Pyricularia oryzae): obvious effects
effect on plant pathogenic fungus Alternaria alternata (Alternaria alternata): obvious effects

B1: wild-type BmmI protein: acyltransferase BmmI from marine-derived Bacillus methylotrophicus B-9987, sequence SEQ ID NO:1 (protein)
chain: MKQTISNPAFDMKQINALNGHYQTMIDNGDLQCASYMMSRGGEVFAAESLGEFTGGQKEKQTFQLDTIREIGSLTKVFTAVAVMQLVEKGLLDLKMPVKLILPAFDKPGFGEIKILHLLTHTAGLSFELDIQKAEGIDLTNEEEWINYLVSTPLEYGVDEAWNYSRTGFVILGIIISKVTGVSYEQYVTKHIIEALGLERTYFYVPDTLKEEVCVISEHECVQLEKSHHPYFPNKATSGLYSSLRDIWKLAEMFRNKGRLKDKKLLGRKTVEAMLRNQIKPGLPFYFFGAPREEGGFGLGINLWPAGDHYFMTEGTFSHLGMGWCGMFSDPAEDFTYVFFTPISEFHPHAVLTPLNIVWAGIE
modifications: bmmI acyltransferase protease sequence
acyl donors recognized (side chain length) ([6]; FIG. 7): malonyl-CoA (C3), succinyl-CoA (C4), glutaryl-CoA (C5) and hexanedioyl-CoA (C6)

B2: R166G (protein)
chain: MKQTISNPAFDMKQINALNGHYQTMIDNGDLQCASYMMSRGGEVFAAESLGEFTGGQKEKQTFQLDTIREIGSLTKVFTAVAVMQLVEKGLLDLKMPVKLILPAFDKPGFGEIKILHLLTHTAGLSFELDIQKAEGIDLTNEEEWINYLVSTPLEYGVDEAWNYSGTGFVILGIIISKVTGVSYEQYVTKHIIEALGLERTYFYVPDTLKEEVCVISEHECVQLEKSHHPYFPNKATSGLYSSLRDIWKLAEMFRNKGRLKDKKLLGRKTVEAMLRNQIKPGLPFYFFGAPREEGGFGLGINLWPAGDHYFMTEGTFSHLGMGWCGMFSDPAEDFTYVFFTPISEFHPHAVLTPLNIVWAGIE
modifications: mutant protein R166G amino acid sequence
catalytic efficiency towards glutaryl-CoA, hexanedioyl-CoA, acetyl-CoA, and acetyl-CoA ([6]; compared with wild type towards malonyl-CoA): equivalent to that of the wild-type protein towards malonyl-CoA
